These results are taken from US12702715B2, “Targeted RNA degradation allows precision repurposing of protein-targeted small molecule medicines to RNA” (University of Florida Research Foundation, Incorporated, priority 2020, dated 2026).

The target in this assay is T1, RNase L / pre-miR-21 ternary complex (Homo sapiens, UniProt Q05823).
T1 construct: endogenous in cells; host or cells: MDA-MB-231
T1 sequence (Q05823 1-741): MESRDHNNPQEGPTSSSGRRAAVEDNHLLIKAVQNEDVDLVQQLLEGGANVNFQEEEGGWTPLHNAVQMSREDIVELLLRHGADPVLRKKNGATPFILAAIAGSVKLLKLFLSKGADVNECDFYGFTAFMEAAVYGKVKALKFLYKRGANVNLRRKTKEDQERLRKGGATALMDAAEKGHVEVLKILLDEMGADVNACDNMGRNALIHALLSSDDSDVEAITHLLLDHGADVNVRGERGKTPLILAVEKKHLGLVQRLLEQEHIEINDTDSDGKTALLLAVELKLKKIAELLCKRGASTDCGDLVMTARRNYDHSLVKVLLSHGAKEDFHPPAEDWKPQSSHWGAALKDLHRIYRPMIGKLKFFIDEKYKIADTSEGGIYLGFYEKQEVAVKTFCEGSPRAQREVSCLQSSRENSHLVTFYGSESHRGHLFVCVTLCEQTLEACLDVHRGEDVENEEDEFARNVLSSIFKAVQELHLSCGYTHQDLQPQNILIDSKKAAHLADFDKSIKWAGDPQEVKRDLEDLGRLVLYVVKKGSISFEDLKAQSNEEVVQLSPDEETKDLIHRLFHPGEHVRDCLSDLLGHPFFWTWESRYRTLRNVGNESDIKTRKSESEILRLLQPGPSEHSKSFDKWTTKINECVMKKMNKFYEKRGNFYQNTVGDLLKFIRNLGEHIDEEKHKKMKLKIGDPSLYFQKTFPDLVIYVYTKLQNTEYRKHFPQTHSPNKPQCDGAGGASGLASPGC
As to the kind of experiment: RNase L immunoprecipitation. Conditions: 1 μM. It is filed as cell-based. The method, then: RNase L Immunoprecipitation. MDA-MB-231 cells were seed in 6-well plates and were treated with vehicle, 4 (1 μM) or 5 (1 μM) when the cells reached ~70% confluency. After 48 h, the cells were harvested and lysed in 100 μL of M-PER buffer containing protease inhibitor and RNaseOUT recombinant Ribonuclease Inhibitor (Invitrogen) on ice for 20 min. The lysate was centrifuged at 13,000×g for 15 min, and the supernatants were incubated with Dynabeads Protein A (Life Technologies) bound to RNase L mouse primary antibody or β-actin mouse primary antibody overnight at 4° C. After incubation, the beads were washed with 1×DPBS containing 0.02% (v/v) Tween-20, and RNA was extracted by using a miRNeasy Mini Kit (Qiagen) per the manufacturer's instructions. RT-qPCR was performed as described above. Relative RNA levels were determined by ΔΔCt method by normalizing to 18S rRNA levels. Normalized fold change was calculated as previously described^6.

Structures are written as SMILES. “Also recorded” adds a separate entry of the source.

Turning to `CCOC(=O)C1=C(Nc2ccccc2)S/C(=C\c2ccc(OCCOCCOCCOCCNC(=O)NCCN3CCN(c4ccc5[nH]c(-c6c(N)c7c(F)cccc7[nH]c6=O)nc5c4)CC3)c(O)c2)C1=O` [Compound 2, Ribotac-Dovitinib], the “enrichment of pre-miR-21 in RNase L immunoprecipitation” value (MDA-MB-231) was “immunoprecipitated pre-miR-21; also recorded: enriched”. Further, for the setting “pre-miRNA without 1-binding site”, the “enrichment of pre-miR-210 in RNase L immunoprecipitation” value is reported as “did not enrich”.
